Test results as given in article PMC8705783, “The Effect of Conjugation with Octaarginine, a Cell-Penetrating Peptide on Antifungal Activity of Imidazoacridinone Derivative” (International Journal of Molecular Sciences, 2021).
Converted amounts (≈) assume the structure as drawn. Read-outs that look alike come from different tables or passages of the source.

What was measured:
human topoisomerase II = settings: cited from earlier work
HEPG2 = test: cells; type: cell-based, human
Protocol: (§1) The investigated compounds were screened for their in vitro antiproliferative activity towards a human embryonic kidney cell line (HEK-293) and human liver cancer cell line (HEPG2) using colorimetric MTT.
(§2) The human embryonic kidney cell line (HEK-293) and human liver cancer cell line (HEPG2) were purchased from ATCC (Manassas, Virginia, USA). HEK-293 was cultured in Dulbecco’s Modified Eagle Medium (Corning, NY, USA) and HEPG2 in Minimum Essential Medium Eagle (Corning, NY, USA). For each cell line, the culture medium was supplemented with 10% fetal bovine serum, 2 mM L-glutamine, and antibiotics: penicillin 62.6 µg mL^−1 and streptomycin 40 µg mL^−1. The cells were cultured at the humidified atmosphere of 5% CO2/95% air and routinely tested for Mycoplasma contamination.
(§3) Antiproliferative activity of the compounds was determined by (3-(4,5-dimethylthiazol-2-yl)-2,5-diphenyltetrazolium bromide (MTT, Sigma-Aldrich, St. Louis, MO, USA) assay, which involves the assessment of cell viability by the measurement of the cellular oxidoreductase activity. Briefly, cells were seeded into 96-well culture plates and were allowed to adhere overnight. The investigated compounds were dissolved in DMSO and added to wells (1% final concentration of DMSO) in various concentrations. After 72 h incubation, 20 µL of MTT solution in PBS (4 mg mL^−1) was added to each well, and plates were incubated for an additional 3h in standard culture conditions. After that, the medium was aspirated, and formazan crystals were dissolved in DMSO. The absorbance was determined at 570 nm with a microplate reader (Asys UVM 340 Microplate Reader, Biochrom, Cambridge, UK). All experiments were performed three times independently in triplicate.

HEK-293 = test: cells; type: cell-based, human
Protocol: as §1, §2, §3

[1] = system: Saccharomyces cerevisiae ATCC 9763
[2] = system: Candida albicans ATCC 10231; test: microbe, parasite or virus in culture; settings: ATCC10231, 24 h, pH 7
reference strains = test: Antifungal activity, summary over reference strains; type: cell-based; parameters: key to Antifungal Activity (level): (−) Means no antifungal activity; (±) low activity; (+) moderate activity; (++) high activity at the concentration mentioned
[3] = system: Candida parapsilosis ATCC 22019; test: microbe, parasite or virus in culture; settings: Lodderomyces parapsilosis, ATCC22019, 24 h, pH 7
Candida albicans cells = system: Candida albicans cells; parameters: method as in PMID 23563951; settings: cited from earlier work
HEK-293 and HEPG2 = test: Antiproliferative activity, MTT, both tested cell lines; type: cell-based; settings: Homo sapiens; Table 5
Protocol: as §1
as §2, with “The cells were cultured at the humidified atmosphere of 5% CO2/95% air and routinely tested for Mycoplasma contamination.” left out
as §3, with “After that, the medium was aspirated, and formazan crystals were dissolved in DMSO. The absorbance was determined at 570 nm with a microplate reader (Asys UVM 340 Microplate Reader, Biochrom, Cambridge, UK). All experiments were performed three times independently in triplicate.” left out

[4] = system: Candida glabrata ATCC 90030
[5] = system: Candida glabrata ATCC 90030; test: microbe, parasite or virus in culture; settings: Nakaseomyces glabratus, ATCC90030, 24 h, pH 7
[6] = system: Saccharomyces cerevisiae ATCC 9763; test: microbe, parasite or virus in culture; settings: ATCC9763, 24 h, pH 7
Candida albicans = system: Candida albicans; parameters: method as in PMID 23563951; settings: cited from earlier work
[7] = system: Candida albicans ATCC 10231
Candida krusei ATCC 6258 [8] = test: microbe, parasite or virus in culture; settings: Pichia kudriavzevii, ATCC6258, 24 h, pH 7
yeast topoisomerase II [9] = biological target: T1, yeast topoisomerase II (Saccharomyces cerevisiae, UniProt P06786); test: Yeast topoisomerase II relaxation assay; type: biochemical; settings: supercoiled pBR322, tested at 1-200 μM
T1 sequence (P06786 whole entry): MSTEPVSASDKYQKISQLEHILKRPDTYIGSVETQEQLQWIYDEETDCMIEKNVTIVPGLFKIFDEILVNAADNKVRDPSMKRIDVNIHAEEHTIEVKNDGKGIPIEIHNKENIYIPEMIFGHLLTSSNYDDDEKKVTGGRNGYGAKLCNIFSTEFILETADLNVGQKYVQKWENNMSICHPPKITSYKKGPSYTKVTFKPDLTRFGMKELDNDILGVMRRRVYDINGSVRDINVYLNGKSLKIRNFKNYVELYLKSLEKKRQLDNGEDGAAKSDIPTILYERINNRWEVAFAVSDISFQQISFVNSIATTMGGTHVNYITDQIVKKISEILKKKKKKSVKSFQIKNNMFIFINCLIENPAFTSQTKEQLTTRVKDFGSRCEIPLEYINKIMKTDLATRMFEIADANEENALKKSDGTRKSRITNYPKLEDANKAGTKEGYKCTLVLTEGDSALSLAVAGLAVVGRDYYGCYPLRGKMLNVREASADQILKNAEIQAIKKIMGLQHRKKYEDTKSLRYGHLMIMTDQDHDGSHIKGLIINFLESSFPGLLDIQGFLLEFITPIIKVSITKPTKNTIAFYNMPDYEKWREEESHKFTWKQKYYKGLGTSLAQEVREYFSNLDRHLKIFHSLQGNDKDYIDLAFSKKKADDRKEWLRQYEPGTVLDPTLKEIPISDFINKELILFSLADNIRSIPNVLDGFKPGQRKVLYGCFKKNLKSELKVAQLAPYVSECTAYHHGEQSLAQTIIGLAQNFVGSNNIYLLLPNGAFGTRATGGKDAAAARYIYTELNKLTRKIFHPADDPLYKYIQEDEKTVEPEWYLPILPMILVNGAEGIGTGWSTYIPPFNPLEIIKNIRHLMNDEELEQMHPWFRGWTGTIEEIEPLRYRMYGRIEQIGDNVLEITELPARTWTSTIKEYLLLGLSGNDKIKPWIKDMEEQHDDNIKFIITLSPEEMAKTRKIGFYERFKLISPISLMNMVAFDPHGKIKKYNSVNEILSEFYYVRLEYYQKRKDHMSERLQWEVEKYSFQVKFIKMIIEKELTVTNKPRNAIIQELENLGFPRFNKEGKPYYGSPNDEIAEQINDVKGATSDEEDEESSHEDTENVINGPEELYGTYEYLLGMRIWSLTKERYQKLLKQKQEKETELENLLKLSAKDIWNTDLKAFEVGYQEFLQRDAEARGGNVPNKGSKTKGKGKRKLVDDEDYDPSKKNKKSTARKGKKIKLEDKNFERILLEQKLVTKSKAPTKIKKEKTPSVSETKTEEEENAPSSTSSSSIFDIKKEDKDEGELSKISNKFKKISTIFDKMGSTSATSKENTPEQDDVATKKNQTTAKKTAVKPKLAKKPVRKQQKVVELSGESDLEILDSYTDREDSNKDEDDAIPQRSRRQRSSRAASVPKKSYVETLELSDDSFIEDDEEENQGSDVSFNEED
Protocol: Due to the known activity of acridine and acridone derivatives as human topoisomerase inhibitors widely analysed for cancer chemotherapy, we decided to analyse the influence of Compound 1 as well as its R8 conjugate on the fungal equivalent of that enzyme. The relaxation of supercoiled plasmid DNA by yeast topoisomerase II (yTOPO II) was studied in the presence of different concentrations of both compounds.
The inhibition of yeast topoisomerase II was analysed according to the relaxation assay kit from Inspiralis (Inspiralis Limited, Norwich, UK). Briefly, 250 ng of supercoiled pBR322 DNA (Thermo Fisher Scientific, Waltham, MA, USA), 1 mM ATP (Inspiralis Limited, UK), and 1–200 μM of the analysed compound were mixed with reaction buffer (1 mM Tris-HCl (pH 7.9), 10 mM KCl, 0.5 mM MgCl2, 0.2 % (by volume) glycerol). The reaction was initiated by the addition of an enzyme, allowed to proceed at 30 °C for 30 min and terminated by addition of 40% (m/V) sucrose, 100 mM Tris-HCl pH 8, 10 mM EDTA, and 0.5 mg mL^−1 Bromophenol Blue. Two-step extraction with chloroform:isoamyl alcohol (24:1, by volume) and butanol water was performed and mixtures were analysed on 1% agarose gel in 1 × TAE buffer, 3h, 4.5 V cm^−1. Gel was stained in GelRed 3 × staining solution (Biotium, Fremont, CA, USA) for 30 min and photographed with Gel Doc XR+Gel Documentation System (Bio-Rad: Hercules, CA, USA).

Candida krusei ATCC 6258 [10] = system: Candida krusei ATCC 6258
yeast topoisomerase II [11] = biological target: T1, yeast topoisomerase II; test: Formation of cleavable complexes in vitro; type: biochemical; settings: 0.1-10 μM, pBR322 plasmid DNA
Protocol: Cleavage assay of yeast topoisomerase II was performed according to the formation of cleavable complexes kit from Inspiralis. The experimental conditions were the same as for the relaxation assay except for the amount of yeast topoisomerase II (16 times more enzyme was used). The reaction was initiated by the addition of the enzyme and allowed to proceed for 10 min at 30 °C. Then, 0.35% SDS and 0.3 mg mL^−1 proteinase K (A&A Biotechnology, Gdynia, Poland) was added, and the probes were incubated in 56 °C for 1 h. The reaction was terminated by the addition of 100 mM Tris-HCl pH 8, 10 mM EDTA, 0.5 mg mL^−1 Bromophenol Blue. Extraction with chloroform:isoamyl alcohol (24:1, by volume) was performed, and mixtures were analysed on the 1.2% agarose gel with 0.5 µg mL^−1 ethidium bromide in 1x TAE buffer, 18 h, 1.1 V cm^−1. Gel was photographed with the Gel Doc XR+Gel Documentation System.

[12] = system: Candida parapsilosis ATCC 22019
Candida albicans B3 = settings: B3, 12 h
Candida albicans Gu5 = settings: Gu5, 12 h
Candida albicans F5 = settings: F5, 12 h
Candida albicans Gu4 = settings: Gu4, 12 h
HeLa cells = settings: cited from earlier work
Candida albicans B4 = settings: B4, 12 h
Candida albicans F2 = settings: F2, 12 h

**Q.** Which results are given for `CCN(CC)CCNc1ccc2ncn3c4ccc(O)cc4c(=O)c1c23` [Compound C-1311, 5-((2-(Diethylamino)ethyl)amino)-8-hydroxy-6H-imidazo[4,5,1-de]acridin-6-one]?
**A.** IC50 (hTOPO II inhibition) (human topoisomerase II): 2.5 µg/mL (≈ 7.13 µM); IC50 (human topoisomerase II; read-out: IC50 (hTOPO II inhibition)): 6500 nM; IC50 (HEPG2; Homo sapiens, HEPG2, 72 h treatment, MTT, ± SD, read-out: IC50 (antiproliferative activity)): 129 ± 37 nM; IC50 (HEK-293; Homo sapiens, HEK293, 72 h treatment, MTT, ± SD, read-out: IC50 (antiproliferative activity)): 8 ± 7 nM; IC50 HEK293/MIC90 (mycostatic selectivity index) ([1]; HEK293 vs Saccharomyces cerevisiae ATCC 9763): <0.00005; IC50 HEPG2/MIC90 (mycostatic selectivity index) ([1]; HEPG2 vs Saccharomyces cerevisiae ATCC 9763): <0.00078; MIC90 [2]: > 64 µg/mL; Antifungal Activity (level) (reference strains; Table 3): −; antifungal activity (reference strains; as reported in Table 1): no antifungal activity was observed; MIC90 [3]: > 64 µg/mL; accumulation in Candida albicans cells (Candida albicans cells): unable to accumulate in Candida albicans cells; IC50 (HEK-293 and HEPG2): ≤ 1000 nM; IC50 HEK293/MIC90 (mycostatic selectivity index) ([4]; HEK293 vs Candida glabrata ATCC 90030): <0.00005; IC50 HEPG2/MIC90 (mycostatic selectivity index) ([4]; HEPG2 vs Candida glabrata ATCC 90030): <0.00078; MIC90 [5]: > 64 µg/mL; MIC90 [6]: > 64 µg/mL; antifungal activity (Candida albicans): no antifungal activity was observed; IC50 HEK293/MIC90 (mycostatic selectivity index) ([7]; HEK293 vs Candida albicans ATCC 10231, MIC converted to micromolar): <0.00005; IC50 HEPG2/MIC90 (mycostatic selectivity index) ([7]; HEPG2 vs Candida albicans ATCC 10231): <0.00078; MIC90 (Candida krusei ATCC 6258 [8]): > 64 µg/mL; concentration that totally inhibited yeast topoisomerase II-mediated relaxation (yeast topoisomerase II [9]): 50 µM; IC50 HEK293/MIC90 (mycostatic selectivity index) (Candida krusei ATCC 6258 [10]; HEK293 vs Candida krusei ATCC 6258): <0.00005; IC50 HEPG2/MIC90 (mycostatic selectivity index) (Candida krusei ATCC 6258 [10]; HEPG2 vs Candida krusei ATCC 6258): <0.00078; formation of DNA–yeast topoisomerase II cleavable complexes (yeast topoisomerase II [11]): stimulated the formation of DNA–yeast topoisomerase II cleavable complexes; IC50 HEK293/MIC90 (mycostatic selectivity index) ([12]; HEK293 vs Candida parapsilosis ATCC 22019): <0.00005; IC50 HEPG2/MIC90 (mycostatic selectivity index) ([12]; HEPG2 vs Candida parapsilosis ATCC 22019): <0.00078

**Q.** With `N=C(N)NCCC[C@H](NC(=O)[C@H](CCCNC(=N)N)NC(=O)[C@H](CCCNC(=N)N)NC(=O)[C@H](CCCNC(=N)N)NC(=O)[C@H](CCCNC(=N)N)NC(=O)[C@H](CCCNC(=N)N)NC(=O)[C@H](CCCNC(=N)N)NC(=O)[C@@H](N)CCCNC(=N)N)C(=O)O` [Compound R8, Octaarginine] as the compound, how does the IC50 (HEPG2; 72 h) read?
**A.** > 50000 nM

**Q.** What about the IC50 (HEK-293; 72 h) of the same compound?
**A.** > 50000 nM

**Q.** And the MIC90 ([1]; ATCC 9763, 24 h, pH 7)?
**A.** 64 µg/mL (≈ 50.5 µM)

**Q.** What about the MIC90 (Candida albicans B3) of the same compound?
**A.** >64 µg/mL

**Q.** And the MIC90 (Candida albicans Gu5)?
**A.** >64 µg/mL

**Q.** What about the MIC90 (Candida albicans F5) of the same compound?
**A.** >64 µg/mL

**Q.** And the MIC90 ([4]; ATCC 90030, 24 h, pH 7)?
**A.** >64 µg/mL

**Q.** What about the MIC90 ([7]; ATCC 10231, 18 h) of the same compound?
**A.** >64 µg/mL

**Q.** What about the MIC90 ([7]; ATCC 10231, 24 h, pH 7) of the same compound?
**A.** >64 µg/mL

**Q.** And the MIC90 (Candida albicans Gu4)?
**A.** >64 µg/mL

**Q.** And the cytotoxicity (HeLa cells)?
**A.** no cytotoxicity

**Q.** And the MIC90 (Candida krusei ATCC 6258 [10]; ATCC 6258, 24 h, pH 7)?
**A.** >64 µg/mL

**Q.** And the MIC90 (Candida albicans B4)?
**A.** >64 µg/mL

**Q.** What about the MIC90 (Candida albicans F2) of the same compound?
**A.** >64 µg/mL

**Q.** And the MIC90 ([12]; ATCC 22019, 24 h, pH 7)?
**A.** 64 µg/mL (≈ 50.5 µM)
